Where two headings read alike, the source gives them in different places.
Key:
Assay type in all cases: biochemical
[1] = target: T1, USP2 full length (USP2^FL) (Homo sapiens, UniProt O75604); assay: Inhibition of Ub-AMC hydrolysis by USP2 full length; details: Ub-AMC at 1 μM, Table 1a; for inhibition at 1 µM: 1 μM compound; for inhibition at 5 µM: 5 μM compound; for inhibition at 25 µM: 25 μM compound; for inhibition at 50 µM: 50 μM compound
T1 construct: purchased BioSciences 80352
T1 sequence (O75604 1-605): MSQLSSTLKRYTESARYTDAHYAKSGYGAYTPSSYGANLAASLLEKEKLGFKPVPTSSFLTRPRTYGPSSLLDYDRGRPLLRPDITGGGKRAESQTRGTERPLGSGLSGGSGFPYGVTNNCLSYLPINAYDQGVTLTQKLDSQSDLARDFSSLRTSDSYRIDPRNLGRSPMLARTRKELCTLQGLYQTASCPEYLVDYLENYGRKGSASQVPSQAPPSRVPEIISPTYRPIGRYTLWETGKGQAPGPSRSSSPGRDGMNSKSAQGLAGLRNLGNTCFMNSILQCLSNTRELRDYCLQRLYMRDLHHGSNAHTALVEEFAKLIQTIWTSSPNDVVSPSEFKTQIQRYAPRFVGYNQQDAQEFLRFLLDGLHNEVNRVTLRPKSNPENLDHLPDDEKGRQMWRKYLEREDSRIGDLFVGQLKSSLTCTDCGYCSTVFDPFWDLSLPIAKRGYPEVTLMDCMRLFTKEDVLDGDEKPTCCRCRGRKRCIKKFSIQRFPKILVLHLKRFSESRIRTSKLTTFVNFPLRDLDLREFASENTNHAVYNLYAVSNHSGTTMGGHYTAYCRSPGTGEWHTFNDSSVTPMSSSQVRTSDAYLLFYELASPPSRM
Description: (§1) Enzymatic assay was performed in a HEPES buffer (50 mM pH7.6 1 mM DTT, 2% glycerol, 0.5 mM EDTA) or in a Tris buffer (40 mM pH7.4 1 mM DTT, 5% glycerol, 0.05 mg/ml BSA) respectively, following manufacturer's instructions. Compounds were added to the reaction mixture just prior to the substrate. The enzymatic reaction kinetics was monitored through the apparition of fluorescence due to the hydrolysis of the peptidyl Ub-AMC or Ub-Rho bound over 20 or 30 minutes.

[2] = target: T2, USP8^CD (purified catalytic domain of USP8) (Homo sapiens, UniProt P40818); assay: Inhibition of purified USP8^CD enzymatic activity (Ub-AMC or Ub-Rho substrate); details: for inhibition at 1 µM: 1 μM compound
T2 construct: the purified catalytic domain of USP8 (USP8^CD, in-house purified); made in house; host or cells: E. coli BL21 Gold
T2 sequence (P40818 777-1109 limits assumed): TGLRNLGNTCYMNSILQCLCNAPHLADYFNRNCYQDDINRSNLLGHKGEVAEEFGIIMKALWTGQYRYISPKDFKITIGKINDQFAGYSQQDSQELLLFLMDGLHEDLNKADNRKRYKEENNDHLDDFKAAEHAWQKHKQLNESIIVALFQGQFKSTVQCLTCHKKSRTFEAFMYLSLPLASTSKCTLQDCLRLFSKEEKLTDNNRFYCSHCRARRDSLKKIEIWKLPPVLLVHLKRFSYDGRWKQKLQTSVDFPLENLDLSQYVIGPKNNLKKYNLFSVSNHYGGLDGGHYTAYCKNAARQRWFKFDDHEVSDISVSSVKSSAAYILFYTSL
Description: (§2) USP2CD or USP8CD were expressed in E. coli BL21 Gold. Cells were grown in LB Miller to mid-log phase and induced by addition of 0.5 mM IPTG for USP2CD for 5 h at 20° C., while 1 mM IPTG was added for USP8CD for 3 h at 37° C. Then, cells were harvested and frozen at −80° C.
For His-tagged USP8CD, cells were resuspended in buffer A (50 mM TRIS pH 8.0, 500 mM NaCl, 2 mM Imidazole) and lysed using a sonicator. The lysate was clarified by centrifugation and applied to Ni Sepharose6 Fast Flow resin (GE Healthcare). The resin was sequentially washed first with buffer A containing 10 mM Imidazole then with buffer A containing 20 mM Imidazole, and finally with buffer A containing 50 mM Imidazole. Protein sample was eluted from the resin using buffer A containing 300 mM Imidazole. The eluted protein was buffer exchanged by gel-filtration on a Superdex 200 10/300 GL column (GE Healthcare) equilibrated in Buffer B (20 mM HEPES pH 7.5, 300 mM NaCl, 2 mM dithiothreitol (DTT)).
as §1
(§3) Medium value out of duplicates is reported.

[3] = target: T3, USP2^CD (purified catalytic domain of USP2) (Homo sapiens, UniProt O75604); assay: Inhibition of purified USP2^CD enzymatic activity (Ub-AMC or Ub-Rho substrate); details: for inhibition at 1 µM: 1 μM compound; for inhibition at 5 µM: 5 μM compound
T3 construct: The purified catalytic domain of USP2 (USP2^CD, in-house purified); His; made in house; host or cells: E. coli BL21 Gold
T3 sequence (O75604 267-599 limits assumed): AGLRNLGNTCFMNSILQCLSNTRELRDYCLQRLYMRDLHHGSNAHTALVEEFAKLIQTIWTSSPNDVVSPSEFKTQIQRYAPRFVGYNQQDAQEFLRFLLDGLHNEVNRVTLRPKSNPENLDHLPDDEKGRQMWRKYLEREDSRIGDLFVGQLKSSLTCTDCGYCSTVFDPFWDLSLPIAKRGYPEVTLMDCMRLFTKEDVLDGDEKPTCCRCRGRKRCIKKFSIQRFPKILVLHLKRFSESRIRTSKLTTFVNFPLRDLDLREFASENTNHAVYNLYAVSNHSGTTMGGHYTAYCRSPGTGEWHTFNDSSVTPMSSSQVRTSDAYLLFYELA
Description: as §2
For His-tagged USP2CD, cells were resuspended in buffer C (10 mM TRIS pH 8.0, 100 mM NaCl, 10 mM Imidazole) and lysed using a sonicator. The lysate was clarified by centrifugation and applied to Ni Sepharose6 Fast Flow resin (GE Healthcare). The resin was sequentially washed with buffer C, then with buffer C containing 50 mM Imidazole. Protein sample was eluted from the resin using buffer C containing 250 mM Imidazole. The eluted protein was buffer exchanged by gel-filtration on a Superdex 200 10/300 GL column (GE Healthcare) equilibrated in Buffer D (15 mM Bis-TRIS pH 6.0, 100 mM NaCl, 1 mM dithiothreitol (DTT)).
as §1, §3

[4] = 0.1 μM compound, Ub-AMC at 1 μM, Table 1a
[5] = 0.5 μM compound, Ub-AMC at 1 μM, Table 1a
[6] = 5 μM compound, Ub-AMC at 1 μM, Table 1a
[7] = 25 μM compound, Ub-AMC at 1 μM, Table 1a
[8] = 50 μM compound, Ub-AMC at 1 μM, Table 1a
[9] = Ub-AMC substrate at 1 μM, Table 2b, read-out: IC50 USP2 CD
[10] = Ub-AMC substrate at 1 μM, Table 2b, read-out: IC50 USP8 CD

O=C1c2ccccc2C(=O)c2nc(CS(=O)(=O)c3ccc(F)cc3)c(CS(=O)(=O)c3ccc(F)cc3)nc21 [PCR7993]
inhibition at 1 µM [1]: 29%
inhibition at 5 µM [1]: 59%
inhibition at 25 µM [1]: 58%
inhibition at 50 µM [1]: 98%
USP8^CD % inhibition [2, 4]: 0%
USP8^CD % inhibition [2, 5]: 16%
inhibition at 1 µM ([2]; Ub-AMC at 1 μM, Table 1a): 34%
USP8^CD % inhibition [2, 6]: 22%
USP8^CD % inhibition [2, 7]: 101%
USP8^CD % inhibition [2, 8]: 102%

O=C1c2ccccc2C(=O)c2nc(CS(=O)(=O)c3cccs3)c(CS(=O)(=O)c3cccs3)nc21 [PCR7997]
inhibition at 1 µM [1]: 0%
inhibition at 5 µM [1]: 22%
inhibition at 25 µM [1]: 70%
inhibition at 50 µM [1]: 99%
USP8^CD % inhibition [2, 4]: 17%
USP8^CD % inhibition [2, 5]: 3%
inhibition at 1 µM ([2]; Ub-AMC at 1 μM, Table 1a): 13%
USP8^CD % inhibition [2, 6]: 61%
USP8^CD % inhibition [2, 7]: 97%
USP8^CD % inhibition [2, 8]: 100%

CC/C=C/c1nc2c(nc1/C=C/CC)C(=O)c1ccccc1C2=O [PCR8156]
inhibition at 1 µM [1]: 0%
inhibition at 5 µM [1]: 28%
inhibition at 25 µM [1]: 58%
inhibition at 50 µM [1]: 94%
USP8^CD % inhibition [2, 4]: 6%
USP8^CD % inhibition [2, 5]: 25%
inhibition at 1 µM ([2]; Ub-AMC at 1 μM, Table 1a): 7%
USP8^CD % inhibition [2, 6]: 43%
USP8^CD % inhibition [2, 7]: 100%
USP8^CD % inhibition [2, 8]: 86%

O=C1c2ccccc2C(=O)c2nc(C=C3CCCC3)c(C=C3CCCC3)nc21 [PCR8153]
inhibition at 1 µM [1]: 8%
inhibition at 5 µM [1]: 54%
inhibition at 25 µM [1]: 98%
inhibition at 50 µM [1]: 98%
inhibition at 1 µM ([2]; Ub-AMC at 1 μM, Table 1a): 0%
USP8^CD % inhibition [2, 6]: 22%
USP8^CD % inhibition [2, 7]: 100%
USP8^CD % inhibition [2, 8]: 100%

O=C1c2ccccc2C(=O)c2nc(CS(=O)(=O)c3ccccc3)c(CS(=O)(=O)c3ccccc3)nc21 [PCR7986]
inhibition at 1 µM [1]: 46%
inhibition at 5 µM [1]: 74%
inhibition at 25 µM [1]: 78%
inhibition at 50 µM [1]: 92%
USP8^CD % inhibition [2, 4]: 1%
USP8^CD % inhibition [2, 5]: 13%
USP8^CD % inhibition [2, 8]: 36%

Cc1cc(C)c(S(=O)(=O)Cc2nc3c(nc2CS(=O)(=O)c2c(C)cc(C)cc2C)C(=O)c2ccccc2C3=O)c(C)c1 [PCR7996]
inhibition at 1 µM [1]: 25%
inhibition at 5 µM [1]: 51%
inhibition at 25 µM [1]: 85%
inhibition at 50 µM [1]: 95%
inhibition at 1 µM ([2]; Ub-AMC at 1 μM, Table 1a): 10%
USP8^CD % inhibition [2, 6]: 70%
USP8^CD % inhibition [2, 7]: 100%
USP8^CD % inhibition [2, 8]: 100%

Cc1ccc(S(=O)(=O)Cc2nc3c(nc2CS(=O)(=O)c2ccc(C)cc2)C(=O)c2ccccc2C3=O)cc1 [PCR7985]
inhibition at 1 µM [1]: 33%
inhibition at 5 µM [1]: 49%
inhibition at 25 µM [1]: 59%
inhibition at 50 µM [1]: 95%
USP8^CD % inhibition [2, 4]: 1%
USP8^CD % inhibition [2, 5]: 20%
inhibition at 1 µM ([2]; Ub-AMC at 1 μM, Table 1a): 55%
USP8^CD % inhibition [2, 6]: 23%
USP8^CD % inhibition [2, 7]: 61%
USP8^CD % inhibition [2, 8]: 98%

O=C1c2ccccc2C(=O)c2nc(CS(=O)(=O)c3ccc([N+](=O)[O-])cc3)c(CS(=O)(=O)c3ccc([N+](=O)[O-])cc3)nc21 [PCR7991]
inhibition at 1 µM [1]: 46%
inhibition at 5 µM [1]: 79%
inhibition at 25 µM [1]: 94%
inhibition at 50 µM [1]: 93%
IC50 ([3]; Ub-Rhodamine substrate, Table 2a, read-out: IC50 against purified USP2^CD): 1700 nM
USP8^CD % inhibition [2, 4]: 42%
USP8^CD % inhibition [2, 5]: 97%
inhibition at 1 µM ([2]; Ub-AMC at 1 μM, Table 1a): 98%
IC50 ([2]; Ub-Rhodamine substrate, Table 2a, read-out: IC50 against purified USP8^CD): 50 nM

O=C1c2ccccc2C(=O)c2nc(CS(=O)(=O)c3ccc(F)c(F)c3F)c(CS(=O)(=O)c3ccc(F)c(F)c3F)nc21 [OVM23]
inhibition at 0.01 µM ([3]; 0.01 μM compound, Table 1c): -20%
inhibition at 0.05 µM ([3]; 0.05 μM compound, Table 1c): -26%
inhibition at 0.1 µM ([3]; 0.1 μM compound, Table 1c): -22%
inhibition at 0.5 µM ([3]; 0.5 μM compound, Table 1c): 16%
inhibition at 1 µM ([3]; Table 1b): 69%
inhibition at 1 µM ([3]; Table 1c): 18%
inhibition at 5 µM ([3]; Table 1b): 53%
inhibition at 5 µM ([3]; Table 1c): -1%
inhibition at 10 µM ([3]; 10 μM compound, Table 1c): 4%
inhibition at 25 µM ([3]; 25 μM compound, Table 1b): 94%
inhibition at 50 µM ([3]; 50 μM compound, Table 1b): 97%
IC50 [3, 9]: > 10000 nM
inhibition at 0.01 µM ([2]; 0.01 μM compound, Table 1d): -5%
inhibition at 0.05 µM ([2]; 0.05 μM compound, Table 1d): 12%
inhibition at 0.1 µM ([2]; 0.1 μM compound, Table 1d): 24%
inhibition at 0.5 µM ([2]; 0.5 μM compound, Table 1d): 20%
inhibition at 1 µM ([2]; Table 1b): 83%
inhibition at 1 µM ([2]; Table 1d): 34%
inhibition at 5 µM ([2]; 5 μM compound, Table 1b): 92%
inhibition at 5 µM ([2]; 5 μM compound, Table 1d): 74%
inhibition at 10 µM ([2]; 10 μM compound, Table 1d): 80%
inhibition at 25 µM ([2]; 25 μM compound, Table 1b): 100%
inhibition at 50 µM ([2]; 50 μM compound, Table 1b): 103%
IC50 [2, 10]: 2200 nM

O=C1c2ccccc2C(=O)c2nc(CCl)c(CCl)nc21 [PCR8146]
inhibition at 1 µM [1]: 30%
inhibition at 5 µM [1]: 50%
inhibition at 25 µM [1]: 89%
inhibition at 50 µM [1]: 99%
IC50 [3, 9]: 6000 nM
USP8^CD % inhibition [2, 4]: 11%
USP8^CD % inhibition [2, 5]: 35%
inhibition at 1 µM ([2]; Ub-AMC at 1 μM, Table 1a): 6%
USP8^CD % inhibition [2, 6]: 43%
USP8^CD % inhibition [2, 7]: 90%
USP8^CD % inhibition [2, 8]: 100%
IC50 [2, 10]: 2100 nM

Reference: patent US11306063B2, “Heterocyclic naphthoquinones derivatives for use in the treatment of cancers including Cushing disease” (Commissariat a l'Energie Atomique et aux Energies …, priority 2016, dated 2022)
